{
  "source": "patent US20020107193A1",
  "about": "“Therapeutic uses for IP3 receptor-mediated calcium channel modulators” (priority 2000, published 2002)",
  "key": {"[Ca^2+]i": {"system": "[Ca^2+]i", "assay": "Intracellular calcium increase caused by glutamate in neurons", "format": "cell-based", "settings": "XeC treatment; data not shown", "text": "Therefore, all inducers of NFκB tested here have in common the ability to initiate calcium release through ER IP3 receptors, either through increasing intracellular calcium, activating production of IP3, or both."}, "[1]": {"system": "IP3 receptors on microsomes", "assay": "Microsome extract (MSE) effect on cytoplasmic NF-κB binding activity", "format": "biochemical, rat", "protocol": "Cerebral cortices from adult female Sprague-Dawley rats were homogenized (20 strokes at 300 rpm) with a Teflon homogenizer in ice-cold buffer containing 1 mM EDTA, 0.32 M sucrose, 0.1 mM dithiothreitol and 1 mM HEPES as described previously (Chen et al., 1998, Diabetes 47:874-81) and cytoplasmic and microsome fractions were isolated by differential centrifugation. Briefly, tissue fragments and cellular debris were removed by centrifugation at 500 g for 10 min and supernatants were centrifuged at 20,000 g for 20 min to pellet intact mitochondria and nuclei. The supernatant was then centrifuged at 100,000 g for 1 h in order to obtain the cytoplasmic fraction and the microsomal pellet enriched in endoplasmic reticulum and golgi membranes. Microsome extracts (MSE) were prepared by suspending microsomes in 1:100 v/v ice-cold buffer and centrifuging at 100,000× g for 1 hr. Microsomes were then re-suspended in 1:2 v/v volume buffer and treated as described below. At the end of the treatment, the suspension was centrifuged at 100,000 g for 1 h, and supernatants were used as MSE. For experiments involving incubation of MSE with cytoplasmic extract, 3 μl of MSE were added to 10 μl cytoplasmic extract and mixtures were incubated at room temperature for 1 h.\n[…] After 1 h at room temperature, samples were examined for NF-κB binding activity.\nIndeed, the role calcium plays in this paradigm seems to be as an intraluminal signal."}, "cardiac cells": {"system": "cardiac cells", "settings": "Hu et al., 1999, cited from earlier work"}, "CREB": {"system": "CREB", "assay": "EMSA of CREB binding activity in cultured primary cortical neurons", "format": "cell-based, rat", "protocol": "Cerebral cortices were removed from embryonic day 18 Sprague-Dawley rats (Harlan, Indianapolis, Ind.). Cells were dissociated as described previously (Mattson et al., 1995, J. Neurochem. 65:1740-1751.) and were seeded into polyethyleneimine-coated 60 mm culture dishes containing Eagle's Minimum Essential Medium supplemented with 26 mM NaHCO3, 40 mM glucose, 20 mM KCl, 1 mM sodium pyruvate, 10% (v/v) heat-inactivated fetal bovine serum (Sigma, St. Louis, Mo.), and 0.001% gentamycin sulfate. After a 3-5 h incubation period to allow for cell attachment, the medium was replaced with 2 ml of Neurobasal Medium with B27 supplements (GIBCO Life Technologies, Grand Island, N.Y.). Previous observations have shown that greater than 80% of the cells that attach in the first few hours after plating will survive longer than 7 days in Neurobasal Medium with no additional neurotrophic factors. Experimental treatments were performed on 7-to-9-day-old neuronal cultures in which there were approximately 5% contaminating glial cells.\nTotal cell extracts were prepared as described (Baeuerle and Baltimore, 1988, Cell 53:211-217). Briefly, cells were harvested, washed twice with ice-cold PBS and lysed for 30 min at 4° C. in Totex buffer (20 mM HEPES, pH 7.9, 350 mM NaC1, 20% glycerol, 1% NP-40, 1 mM MgC12, 0.5 mM EDTA, 0.1 mM EGTA, 5 mM DTT, 0.1% PMSF, 1% aprotinin, 4 μg/ml leupeptin). Samples were centrifuged at 14,000× g for 10 min and aliquots of supernatant were collected and stored at −70° C. until taken for assay. The protein content of the extract (supernatant) was measured by Bradford method (BIO-RAD Laboratories, Ercules, Calif., USA). […]\nAfter 20 min at room temperature, reaction products were separated on a 7% non-denaturing polyacrylamide gel. […] Radioactivity of dried gels was detected by exposure to Kodak X-Omat film and images on the developed film were scanned into a computer using a UMAX 1200s scanner. […]\nThe possible involvement of endoplasmic reticulum pools of intracellular calcium regulated by IP3 receptors in controlling basal levels of NF-κB was investigated using Xestospongin C (XeC) a specific membrane permeable modulator of IP3-mediated Ca^2+release (Gafni et al., 1997, Neuron 19:723-733; Hu et al., 1999, J. Biol. Chem. 274:33995-33998), and thapsigargin (Tg), a specific inhibitor of ER calcium/ATPase (Thastrup et al., 1990, Proc. Natl. Acad. Sci. USA 87:2466-2470; Davidson and Varhol, 1995, J. Biol. Chem. 270:11731-11734.). Cultured primary cortical neurons were treated with either 1 μM XeC, 100 nM Tg or vehicle for 6 h and protein extracts were analyzed for NF-κB binding activity by EMSA electrophoresis."}},
  "data": [
    {"smiles": "C1CCC[C@H]2CCCN3CC[C@@H](CCCCCC[C@@H]4CCCN5CC[C@@H](CC1)O[C@@H]45)O[C@@H]23", "note": "[XeC, Xestospongin C]", "values": [
      {"measurement": "increase in [Ca^2+]i caused by glutamate", "setting": "[Ca^2+]i", "value": "did not erase the increase"},
      {"measurement": "NF-κB stimulating activity of microsomes pretreated then given calcium", "setting": "[1]; XeC pretreatment followed by calcium", "value": "produced no NF-κB stimulating activity"},
      {"measurement": "effect of microsome pretreatment on IP3-induced NF-κB stimulating properties of MSE", "setting": "[1]; XeC pretreatment of microsomes", "value": "completely abolished this effect"},
      {"measurement": "frequency of calcium oscillations", "setting": "cardiac cells", "value": "decreased the frequency"},
      {"measurement": "NF-κB activity", "setting": "cardiac cells; histamine stimulation", "value": "parallel decrease"},
      {"measurement": "binding activity of CREB, agent alone", "setting": "CREB; cortical neurons, XeC 30 min pretreatment, 100 ng/ml TNFα 6 h, FIG. 2a", "value": "neither TNFα nor XeC alone affected the binding activity of CREB"},
      {"measurement": "CREB binding activity", "setting": "CREB; cultured primary cortical neurons, 6 h, 1 μM XeC or 100 nM Tg, data not shown", "value": "slightly augmented CREB binding activity; however, this was not statistically significant"}
    ]}
  ]
}
